{"source": "patent EP3658131B1", "about": "“COMPOSITION FOR THE TREATMENT OF BACTERIAL VAGINOSIS” (Farma-Derma S.R.L., priority 2017, dated 2019)", "type_in_all_cases": "cell-based", "key": {"[1]": {"tested_on": "Staphylococcus aureus ATCC 6538", "experiment": "Reduction of microbial load after incubation with the mixtures (Test 2)", "conditions": "4 hours at 37°C", "description": "(§1) 3 different mixtures of substances were prepared whose composition is described below: − MD(5mg) + AL(90%,11mg) [formula] − DQC(8mg) [formula] − DQC(8mg) + MD(5mg) + AL(90%,11mg) [formula]\n(§2) To evaluate the antibacterial efficacy of the ingredients in the three compositions described above, the pure raw materials directly dissolved in the culture medium were tested. Aliquots of the 3 mixtures were prepared for each of the bacterial strains being evaluated. Each mixture was placed in a receptacle containing a suitable volume of a peptone water solution with pH 5.5 having a concentration of the bacterial strain equal to at least 10^5 CFU/ml.\n(§3) Each container was placed in incubation at 37°C for 4 hours to promote the dissolution and the action of the ingredients. A negative control was prepared for each strain i.e. a solution without the presence of the substances being tested, which is treated in the same experimental conditions as the receptacles containing the mixtures being tested.\n(§4) At the end of the incubation period the contents of each container were neutralised and seeded in a suitable culture medium, the micro-organisms that had grown were counted. Each seeding was performed in triplicate."}, "[2]": {"tested_on": "Prevotella loescheii ATCC 15930", "experiment": "Reduction of microbial load after incubation with the mixtures (Test 2)", "conditions": "4 hours at 37°C", "description": "as §1, §2, §3, §4"}, "[3]": {"tested_on": "Gardnerella vaginalis ATCC 11418", "experiment": "Reduction of microbial load after incubation with the mixtures (Test 2)", "conditions": "4 hours at 37°C", "description": "as §1, §2, §3, §4"}, "[4]": {"tested_on": "Escherichia coli ATCC 8739", "experiment": "Reduction of microbial load after incubation with the mixtures (Test 2)", "conditions": "4 hours at 37°C", "description": "as §1, §2, §3, §4"}, "[5]": {"tested_on": "Gardnerella vaginalis ATCC 11418 + Lactobacillus Acidophilus ATCCC 4356", "experiment": "Survival/growth of lactobacilli in metabolic competition with a pathogenic strain (Test 2)", "conditions": "for Reduction in microbial load with respect to the negative control: values only refer to the lactobacilli, negative value = growth", "description": "The selectivity of the compostion is verified by evaluating the survival ability of the Lactobacillus Acidophilus in the presence and absence of another bacterial strain in metabolic competition.\nas §1, §2, §3, §4"}, "[6]": {"tested_on": "Lactobacillus Acidophilus ATCCC 4356", "experiment": "Survival/growth of lactobacilli after incubation with the mixtures (Test 2)", "conditions": "4 hours at 37°C", "description": "as §1, §2, §3, §4"}, "[7]": {"conditions": "peptone water pH 5.5, at least 10^5 CFU/ml, mean of 3 replicates"}}, "data": [{"smiles": "Cc1cc(N)c2ccccc2[n+]1CCCCCCCCCC[n+]1c(C)cc(N)c2ccccc21", "note": "[DQC, dequalinium chloride]", "values": [{"measurement": "Reduction in microbial load with respect to the negative control", "setting": "[1]; peptone water pH 5.5", "result": 60.00, "unit": "%"}, {"measurement": "Microbial load", "setting": "[1]; [7]", "result": "14,267 CFU/ml"}, {"measurement": "Reduction in microbial load with respect to the negative control", "setting": "[2]; peptone water pH 5.5", "result": 90.56, "unit": "%"}, {"measurement": "Microbial load", "setting": "[2]; [7]", "result": "3,367 CFU/ml"}, {"measurement": "Reduction in microbial load with respect to the negative control", "setting": "[3]; peptone water pH 5.5", "result": 74.31, "unit": "%"}, {"measurement": "Microbial load", "setting": "[3]; [7]", "result": "4,205 CFU/ml"}, {"measurement": "Reduction in microbial load with respect to the negative control", "setting": "[4]; peptone water pH 5.5", "result": 50.60, "unit": "%"}, {"measurement": "Microbial load", "setting": "[4]; [7]", "result": "1,037,400 CFU/ml"}, {"measurement": "Microbial load", "setting": "[5]; values only refer to the lactobacilli (selective media), 4 hours at 37°C, pH 5.5, mean of 3 replicates", "result": "1,400 CFU/ml"}, {"measurement": "Reduction in microbial load with respect to the negative control", "setting": "[5]", "result": 60.00, "unit": "%"}, {"measurement": "Reduction in microbial load with respect to the negative control", "setting": "[5]; listed as dequalinium", "result": 60.00, "unit": "%"}, {"measurement": "Microbial load", "setting": "[6]; [7]", "result": "5,267 CFU/ml"}, {"measurement": "Reduction in microbial load with respect to the negative control", "setting": "[6]; peptone water pH 5.5, negative value = growth", "result": 96.18, "unit": "%"}]}]}
